ChEMBL document CHEMBL5724914, “Linking interpersonal differences in gut microbiota composition and drug biotransformation activity” (2024)

How the values were obtained:
Details in all cases: 2 µM
[1] = (§1) The drug is tested on Z-009 corresponding to pig gut metagenome with ENA study accession number: PRJEB37062 and ENA sample accession number: ERS12561809 for biotransformation under anaerobic condition. The drug concentrations were measured over 9 timepoints collected between 0 and 24 hours of incubation by liquid-chromatography-coupled mass spectrometry (LC–MS)
[2] = as §1, with “Z-019” for “Z-009”, “rat” for “pig”, “ERS12561818” for “ERS12561809”
[3] = as §1, with “Z-030” for “Z-009”, “mouse” for “pig”, “ERS12561829” for “ERS12561809”
[4] = as §1, with “Z-004” for “Z-009”, “to” for “to pig gut”, “ERS12561804” for “ERS12561809”
[5] = as §1, with “Z-005” for “Z-009”, “to” for “to pig gut”, “ERS12561805” for “ERS12561809”
[6] = as §1, with “Z-012” for “Z-009”, “to” for “to pig gut”, “ERS12561812” for “ERS12561809”
[7] = as §1, with “Z-025” for “Z-009”, “rabbit” for “pig”, “ERS12561824” for “ERS12561809”
[8] = as §1, with “Z-008” for “Z-009”, “to” for “to pig gut”, “ERS12561808” for “ERS12561809”
[9] = as §1, with “Z-017” for “Z-009”, “mouse” for “pig”, “ERS12561816” for “ERS12561809”
[10] = as §1, with “Z-018” for “Z-009”, “ERS12561817” for “ERS12561809”
[11] = as §1, with “Z-002” for “Z-009”, “rabbit” for “pig”, “ERS12561802” for “ERS12561809”
[12] = as §1, with “Z-022” for “Z-009”, “mouse” for “pig”, “ERS12561821” for “ERS12561809”
[13] = as §1, with “Z-024” for “Z-009”, “ERS12561823” for “ERS12561809”
[14] = as §1, with “Z-027” for “Z-009”, “to” for “to pig gut”, “ERS12561826” for “ERS12561809”
[15] = as §1, with “Z-006” for “Z-009”, “mouse” for “pig”, “ERS12561806” for “ERS12561809”
[16] = as §1, with “Z-021” for “Z-009”, “to” for “to pig gut”, “ERS12561820” for “ERS12561809”
[17] = as §1, with “Z-028” for “Z-009”, “mouse” for “pig”, “ERS12561827” for “ERS12561809”
[18] = as §1, with “Z-013” for “Z-009”, “rabbit” for “pig”, “ERS12561813” for “ERS12561809”
[19] = as §1, with “Z-020” for “Z-009”, “rabbit” for “pig”, “ERS12561819” for “ERS12561809”
[20] = as §1, with “Z-003” for “Z-009”, “ERS12561803” for “ERS12561809”
[21] = as §1, with “Z-001” for “Z-009”, “mouse” for “pig”, “ERS12561801” for “ERS12561809”
[22] = as §1, with “Z-014” for “Z-009”, “rat” for “pig”, “ERS12561814” for “ERS12561809”
[23] = as §1, with “Z-007” for “Z-009”, “rat” for “pig”, “ERS12561807” for “ERS12561809”
[24] = as §1, with “Z-026” for “Z-009”, “to” for “to pig gut”, “ERS12561825” for “ERS12561809”
[25] = as §1, with “Z-010” for “Z-009”, “to” for “to pig gut”, “ERS12561810” for “ERS12561809”
[26] = as §1, with “Z-016” for “Z-009”, “mouse” for “pig”, “ERS12561815” for “ERS12561809”
[27] = as §1, with “Z-023” for “Z-009”, “to” for “to pig gut”, “ERS12561822” for “ERS12561809”
[28] = as §1, with “Z-011” for “Z-009”, “mouse” for “pig”, “ERS12561811” for “ERS12561809”
[29] = as §1, with “Z-029” for “Z-009”, “rat” for “pig”, “ERS12561828” for “ERS12561809”
Also: call rule not given here.

Row | Structure (SMILES) | Bacterial Biotransformation [1] | Bacterial Biotransformation [2] | Bacterial Biotransformation [3] | Bacterial Biotransformation [4] | Bacterial Biotransformation [5] | Bacterial Biotransformation [6] | Bacterial Biotransformation [7] | Bacterial Biotransformation [8] | Bacterial Biotransformation [9] | Bacterial Biotransformation [10] | Bacterial Biotransformation [11] | Bacterial Biotransformation [12] | Bacterial Biotransformation [13] | Bacterial Biotransformation [14] | Bacterial Biotransformation [15] | Bacterial Biotransformation [16] | Bacterial Biotransformation [17] | Bacterial Biotransformation [18] | Bacterial Biotransformation [19] | Bacterial Biotransformation [20] | further results
1 | CN1C[C@H](C(=O)N[C@]2(C)O[C@@]3(O)[C@@H]4CCCN4C(=O)[C@H](Cc4ccccc4)N3C2=O)C[C@@H]2c3cccc4[nH]cc(c34)C[C@H]21.CS(=O)(=O)O [DIHYDROERGOTAMINE MESYLATE] | Compound NOT metabolized | Compound NOT metabolized | Compound NOT metabolized | Compound NOT metabolized | Compound NOT metabolized | Compound NOT metabolized | Compound metabolized | Compound NOT metabolized | Compound NOT metabolized | Compound NOT metabolized | Compound metabolized | Compound metabolized | Compound metabolized | Compound NOT metabolized | Compound NOT metabolized | Compound NOT metabolized | Compound NOT metabolized | Compound NOT metabolized | Compound NOT metabolized | Compound NOT metabolized | Bacterial Biotransformation [21]: Compound NOT metabolized; Bacterial Biotransformation [22]: Compound NOT metabolized; Bacterial Biotransformation [23]: Compound NOT metabolized; Bacterial Biotransformation [24]: Compound metabolized; Bacterial Biotransformation [25]: Compound NOT metabolized; Bacterial Biotransformation [26]: Compound NOT metabolized; Bacterial Biotransformation [27]: Compound metabolized; Bacterial Biotransformation [28]: Compound NOT metabolized; Bacterial Biotransformation [29]: Compound NOT metabolized
2 | CC(=O)SCC(Cc1ccccc1)C(=O)NCC(=O)OCc1ccccc1 (stereo not drawn) [RACECADOTRIL] | Compound metabolized | Compound metabolized | Compound metabolized | Compound metabolized | Compound metabolized | Compound metabolized | Compound metabolized | Compound metabolized | Compound metabolized | Compound metabolized | Compound metabolized | Compound metabolized | Compound metabolized | Compound NOT metabolized | Compound metabolized | Compound metabolized | Compound metabolized | Compound metabolized | Compound metabolized | Compound metabolized | Bacterial Biotransformation [21]: Compound metabolized; Bacterial Biotransformation [22]: Compound metabolized; Bacterial Biotransformation [23]: Compound metabolized; Bacterial Biotransformation [24]: Compound metabolized; Bacterial Biotransformation [25]: Compound metabolized; Bacterial Biotransformation [26]: Compound metabolized; Bacterial Biotransformation [27]: Compound metabolized; Bacterial Biotransformation [28]: Compound metabolized; Bacterial Biotransformation [29]: Compound metabolized
